Species: Rattus norvegicus
Test: Open TG-GATES - Regimen: Daily Repeat
Type: toxicity, organism-based, Sprague-Dawley
Parameters: regimen Daily Repeat, gender Male, age 6 weeks
Settings: in vivo, po, 5 mg/kg, route gavage, dose level Middle; for APTT / Bas / Eos / Fbg / Hb / Ht / Lym / MCH / MCHC / MCV / Mono / Neu / PT / Plat / RBC / Ret / WBC: tissue Blood; for KIDNEY_L / KIDNEY_R / KIDNEY_TOTAL: tissue Kidney; for LIVER: tissue Liver; for ALP / ALT / AST / BUN / CRE / Ca / Cl / DBIL / GLC / IP / K / LDH / Na / PL / RALB / TBIL / TC / TG / TP / gamma-GTP: tissue Plasma

Structure (SMILES): O=P1(N(CCCl)CCCl)NCCCO1 (stereo not drawn) [CYCLOPHOSPHAMIDE ANHYDROUS]
- TERMINAL_BW (72 h, time 3 day): 226.6 g
- APTT (72 h, time 3 day): 21.9 s
- Bas (72 h, time 3 day): 0%
- Eos (72 h, time 3 day): 1%
- Fbg (72 h, time 3 day): 272.4 mg/dL
- Hb (72 h, time 3 day): 13 g/dL
- Ht (72 h, time 3 day): 39.1%
- Lym (72 h, time 3 day): 81.6%
- MCH (72 h, time 3 day): 21.9 pg
- MCHC (72 h, time 3 day): 33.2%
- MCV (72 h, time 3 day): 65.8 fL
- Mono (72 h, time 3 day): 2.4%
- Neu (72 h, time 3 day): 14%
- PT (72 h, time 3 day): 16.9 s
- Plat (72 h, time 3 day): 114.8 x10_4/uL
- RBC (72 h, time 3 day): 593 x10_4/ul
- Ret (72 h, time 3 day): 6.3%
- WBC (72 h, time 3 day): 54.2 x10_2/uL
- KIDNEY_L (72 h, time 3 day): 1 g
- KIDNEY_R (72 h, time 3 day): 1 g
- KIDNEY_TOTAL (72 h, time 3 day): 2 g
- LIVER (72 h, time 3 day): 10.7 g
- ALP (72 h, time 3 day): 1691.2 IU/L
- ALT (72 h, time 3 day): 40.6 IU/L
- AST (72 h, time 3 day): 68.6 IU/L
- BUN (72 h, time 3 day): 17 mg/dL
- CRE (72 h, time 3 day): 0.2 mg/dL
- Ca (72 h, time 3 day): 10.9 mg/dL
- Cl (72 h, time 3 day): 104.6 meq/L
- DBIL (72 h, time 3 day): 0.002 mg/dL
- GLC (72 h, time 3 day): 182.8 mg/dL
- IP (72 h, time 3 day): 8 mg/dL
- K (72 h, time 3 day): 4.1 meq/L
- LDH (72 h, time 3 day): 172 IU/L
- Na (72 h, time 3 day): 141.6 meq/L
- PL (72 h, time 3 day): 149.6 mg/dL
- RALB (72 h, time 3 day): 3 g/dL
- TBIL (72 h, time 3 day): 0.022 mg/dL
- TC (72 h, time 3 day): 75.4 mg/dL
- TG (72 h, time 3 day): 94.4 mg/dL
- TP (72 h, time 3 day): 5.5 g/dL
- gamma-GTP (72 h, time 3 day): 1 IU/L
- TERMINAL_BW ([…], time 7 day): 245.9 g
- TERMINAL_BW ([…], time 14 day): 288.6 g
- TERMINAL_BW ([…], time 28 day): 359.3 g
- APTT ([…], time 7 day): 22 s
- Bas ([…], time 7 day): 0%
- Eos ([…], time 7 day): 0.6%
- Fbg ([…], time 7 day): 273.8 mg/dL
- Hb ([…], time 7 day): 13.5 g/dL
- Ht ([…], time 7 day): 40.4%
- Lym ([…], time 7 day): 82.4%
- MCH ([…], time 7 day): 20.9 pg
- MCHC ([…], time 7 day): 33.4%
- MCV ([…], time 7 day): 62.7 fL
- Mono ([…], time 7 day): 3.2%
- Neu ([…], time 7 day): 12.6%
- PT ([…], time 7 day): 15.8 s
- Plat ([…], time 7 day): 133.9 x10_4/uL
- RBC ([…], time 7 day): 644.2 x10_4/ul
- Ret ([…], time 7 day): 5.3%
- WBC ([…], time 7 day): 36.4 x10_2/uL
- APTT ([…], time 14 day): 22 s
- Bas ([…], time 14 day): 0%
- Eos ([…], time 14 day): 1.4%
- Fbg ([…], time 14 day): 305.8 mg/dL
- Hb ([…], time 14 day): 13.8 g/dL
- Ht ([…], time 14 day): 40.5%
- Lym ([…], time 14 day): 75.2%
- MCH ([…], time 14 day): 20.4 pg
- MCHC ([…], time 14 day): 34%
- MCV ([…], time 14 day): 59.9 fL
- Mono ([…], time 14 day): 4.6%
- Neu ([…], time 14 day): 17.2%
- PT ([…], time 14 day): 14.6 s
- Plat ([…], time 14 day): 116.3 x10_4/uL
- RBC ([…], time 14 day): 676.8 x10_4/ul
- Ret ([…], time 14 day): 3.5%
- WBC ([…], time 14 day): 27.7 x10_2/uL
- APTT ([…], time 28 day): 21.7 s
- Bas ([…], time 28 day): 0%
- Eos ([…], time 28 day): 1.4%
- Fbg ([…], time 28 day): 308 mg/dL
- Hb ([…], time 28 day): 14.5 g/dL
- Ht ([…], time 28 day): 42.5%
- Lym ([…], time 28 day): 73%
- MCH ([…], time 28 day): 19.3 pg
- MCHC ([…], time 28 day): 34.3%
- MCV ([…], time 28 day): 56.5 fL
- Mono ([…], time 28 day): 3.6%
- Neu ([…], time 28 day): 20.8%
- PT ([…], time 28 day): 16 s
- Plat ([…], time 28 day): 110.7 x10_4/uL
- RBC ([…], time 28 day): 752.2 x10_4/ul
- Ret ([…], time 28 day): 3%
- WBC ([…], time 28 day): 35.5 x10_2/uL
- KIDNEY_L ([…], time 7 day): 1 g
- KIDNEY_R ([…], time 7 day): 1 g
- KIDNEY_TOTAL ([…], time 7 day): 2 g
- KIDNEY_L ([…], time 14 day): 1.2 g
- KIDNEY_R ([…], time 14 day): 1.2 g
- KIDNEY_TOTAL ([…], time 14 day): 2.3 g
- KIDNEY_L ([…], time 28 day): 1.3 g
- KIDNEY_R ([…], time 28 day): 1.3 g
- KIDNEY_TOTAL ([…], time 28 day): 2.6 g
- LIVER ([…], time 7 day): 10.8 g
- LIVER ([…], time 14 day): 12.3 g
- LIVER ([…], time 28 day): 14.6 g
- ALP ([…], time 7 day): 1412.8 IU/L
- ALT ([…], time 7 day): 38.2 IU/L
- AST ([…], time 7 day): 65 IU/L
- BUN ([…], time 7 day): 18.8 mg/dL
- CRE ([…], time 7 day): 0.2 mg/dL
- Ca ([…], time 7 day): 11 mg/dL
- Cl ([…], time 7 day): 105.6 meq/L
- DBIL ([…], time 7 day): 0 mg/dL
- GLC ([…], time 7 day): 180.4 mg/dL
- IP ([…], time 7 day): 6.8 mg/dL
- K ([…], time 7 day): 3.9 meq/L
- LDH ([…], time 7 day): 130 IU/L
- Na ([…], time 7 day): 142.8 meq/L
- PL ([…], time 7 day): 141.6 mg/dL
- RALB ([…], time 7 day): 2.9 g/dL
- TBIL ([…], time 7 day): 0.016 mg/dL
- TC ([…], time 7 day): 74.6 mg/dL
- TG ([…], time 7 day): 115.2 mg/dL
- TP ([…], time 7 day): 5.5 g/dL
- gamma-GTP ([…], time 7 day): 1.4 IU/L
- ALP ([…], time 14 day): 1134.4 IU/L
- ALT ([…], time 14 day): 36.6 IU/L
- AST ([…], time 14 day): 57.2 IU/L
- BUN ([…], time 14 day): 17.2 mg/dL
- CRE ([…], time 14 day): 0.2 mg/dL
- Ca ([…], time 14 day): 10.6 mg/dL
- Cl ([…], time 14 day): 108.6 meq/L
- DBIL ([…], time 14 day): 0 mg/dL
- GLC ([…], time 14 day): 171 mg/dL
- IP ([…], time 14 day): 7.1 mg/dL
- K ([…], time 14 day): 4 meq/L
- LDH ([…], time 14 day): 148.8 IU/L
- Na ([…], time 14 day): 143.6 meq/L
- PL ([…], time 14 day): 150.4 mg/dL
- RALB ([…], time 14 day): 3 g/dL
- TBIL ([…], time 14 day): 0.016 mg/dL
- TC ([…], time 14 day): 80.4 mg/dL
- TG ([…], time 14 day): 129.2 mg/dL
- TP ([…], time 14 day): 5.7 g/dL
- gamma-GTP ([…], time 14 day): 1 IU/L
- ALP ([…], time 28 day): 973.8 IU/L
- ALT ([…], time 28 day): 34.4 IU/L
- AST ([…], time 28 day): 57.8 IU/L
- BUN ([…], time 28 day): 16.8 mg/dL
- CRE ([…], time 28 day): 0.2 mg/dL
- Ca ([…], time 28 day): 10.5 mg/dL
- Cl ([…], time 28 day): 106.6 meq/L
- DBIL ([…], time 28 day): 0.002 mg/dL
- GLC ([…], time 28 day): 190.2 mg/dL
- IP ([…], time 28 day): 6.5 mg/dL
- K ([…], time 28 day): 3.8 meq/L
- LDH ([…], time 28 day): 133 IU/L
- Na ([…], time 28 day): 144 meq/L
- PL ([…], time 28 day): 135.8 mg/dL
- RALB ([…], time 28 day): 3.1 g/dL
- TBIL ([…], time 28 day): 0.024 mg/dL
- TC ([…], time 28 day): 68.8 mg/dL
- TG ([…], time 28 day): 111.6 mg/dL
- TP ([…], time 28 day): 5.9 g/dL
- gamma-GTP ([…], time 28 day): 1.2 IU/L

— ChEMBL document CHEMBL3885861, “Open TG-GATES”
